Measured values from EP4772500A1, “NOVEL ISOXAZOLE COMPOUND AS TM4SF5-SPECIFIC INHIBITOR AND USE THEREOF” (Seoul National University R&DB Foundation, priority 2023, dated 2025).

Experiments:
[1] = system: SNU449-TM4SF5 cells; assay: Cell migration tracking, TM4SF5-expressing cells; type: cell-based, human; conditions: SNU449-TM4SF5, 2.5, 5.0, or 10.0 µM, 17 hours (FIG. 7)
Description: (§1) SNU449-TM4SF5 cells, which were made to express TM4SF5 using a lentivirus in human hepatocellular carcinoma cells SNU449, and SNU449-EV cells, into which a control vector (empty vector, EV) was injected so that TM4SF5 is not expressed, were seeded to a density of 40% in 8-chamber plates (Thermo) coated with 10 µg/ml collagen type 1 (Advanced Biomatrix). Three hours after seeding in a cell culture environment containing 10% FBS (GenDEPOT), DMSO and drugs were treated in the culture medium at the indicated concentrations. After treating with the drugs, the positions of the same moving cells were repeatedly photographed using a microscope every 20 minutes for 17 hours. The cells were photographed using an IX81-ZDC microscope (Olympus) equipped with a UPLSAPO 10X2, NA0.4 Super Apochromatic objective lens (Olympus). While photographing the cells, a general cell culture environment was created by constantly injecting 5% CO2 at a rate of 40-60 mL/min at 37°C using a controller (Live Cell Instrument). The migration distance and path of the cells were calculated using the "Track Object" application of MetaMorph software (Molecular Devices LLC). […]

[2] = system: SNU449-EV cells; assay: Cell migration tracking, control cells; type: cell-based, human; conditions: SNU449-EV, 2.5, 5.0, or 10.0 µM, 17 hours (FIG. 7)
Description: as §1

[3] = system: SNU449T7 cells; assay: Liver-orthotopic xenograft model of TM4SF5-expressing cell line; type: in vivo, BALB/c-Nude mice
Description: The next day, the cells were detached by treating with a T/E (Trypsin/EDTA) solution and centrifuged at 150x g for 3 minutes to obtain a pellet. Thereafter, the supernatant was removed, leaving only the pellet. After mixing with matrigel matrix (CORNING) such that the final concentration of EGF was 50 ng/µl, the cell pellet was prepared by resuspension in the mixture of EGF and matrigel. Then, 5x10^5 cells/20 µl were directly injected once into the liver of 6-week-old male BALB/c-Nude mice. At this time, the animals were anesthetized by inhalation with […] isoflurane and injected. From one week after the cell injection, drug ST-5-002 was intraperitoneally injected at 5 mg/kg twice a week. After injecting the drug for a total of 6 times over 3 weeks, the animals were sacrificed at the 4th week of cell injection, and liver tissues were obtained and analyzed.
(a-d) A liver-orthotopic xenograft model was established by directly injecting 5x10^5 SNU449T7 cells into the livers of 6-week-old male BALB/c-Nude mice (n=9), which are deficient in T and B cells but still capable of activating NK cell functions. Starting one week after the cell injection, the drug ST-5-002 was intraperitoneally injected at 5 mg/kg twice a week (a). After a total of 6 injections over 3 weeks, the animals were sacrificed at the 4th week of cell injection, and liver tissues were obtained and images of the livers were taken (b). Body weight was measured every week during the drug injections. Meanwhile, although cancer formation occurred in several places in the liver tissue, the cancer masses were […], and since it was practically difficult to measure the size or volume of small cancer masses due to time constraints for tissue specimen processing, the volume of the largest cancer mass was measured for each liver tissue. The tumor volumes calculated from n=7 liver tissues, excluding the maximum and minimum values, are shown (c). (d) For a portion of the liver tissues, the expression level, distribution, and localization of each factor, as well as the degree of damage to the liver cancer tissue, were confirmed through immunohistochemistry or H&E staining for the given protein factors.
(a-b) As in FIG. 20, a liver-orthotopic xenograft model was established by directly injecting 5x10^5 SNU449T7 cells into the livers of 6-week-old male BALB/c-Nude mice (n=9), which are deficient in T and B cells but still capable of activating NK cell functions. Starting one week after the cell injection, the drug ST-5-002 was intraperitoneally injected at 5 mg/kg twice a week. (b-d) After the end of the experiment, for a portion of the obtained liver tissues, the expression level, distribution, and localization of SLAMF7, SLAMF6, NKG2D, PD-L1, and PD-1 factors, as well as the degree of liver cancer tissue, were confirmed through immunohistochemistry.

[4] = mouse xenograft experiment, liver tissue extracts, Western blotting (FIG. 13e)

## COc1ccc(-c2cc(-c3ccc(NC(C)=O)cc3)no2)cc1 [ST-2-001, N-(4-(5-(4-methoxyphenyl)isoxazole-3-yl)phenyl)acetamide]
[1]
  migration of the cells: decreased according to the treatment with ST-2-001 in a concentration-dependent manner
[2]
  cell migration: did not change

## Cc1ccc(C(=O)Nc2ccc(-c3cc(-c4ccc(O)cc4)no3)cc2)cc1 [ST-5-002, N-(4-(3-(4-hydroxyphenyl)isoxazole-5-yl)phenyl)-4-methylbenzamide]
[3]; 5 mg/kg IP twice a week, 6 times, images (FIG. 20b)
  inhibitory effect on liver cancer formation: distinct
[3]; immunohistochemistry (FIG. 22e)
  distribution of cells highly expressing PD-L1: scattered and distributed at a low level inside the tumor
[3]; immunohistochemistry (FIG. 22d)
  infiltration of PD-1-expressing cells: scattered and distributed without restriction
[3]; immunohistochemistry of liver tissue (FIG. 20d)
  expressions of Ki67, AFP, F4/80, CCL2 and CCL20, and laminin γ2: significantly lower
[3]; immunohistochemistry, interface of small tumors (FIG. 22b)
  distribution of cells highly expressing SLAMF7: infiltrated and were distributed or localized inside the tumor
[3]; immunohistochemistry, small cancerous areas (FIG. 22c)
  degree of staining for SLAMF6 and NKG2D: further increased inside the tumor area
[3]; largest cancer mass per liver, 28th day, vs vehicle (FIG. 20c)
  tumor volume: significantly reduced
[3]; [4]
  SLAMF6 expression: increased
  TIGIT expression level: lowered
